Measurements as given in US20190307783A1, “USE OF ANTIVIRALS TO INHIBIT PROTOZOAN VIRUSES” (priority 2016, published 2019).
Where two headings read alike, the source gives them in different places.

Experiments:
[1] = system: L. guyanensis (LgyLRV1+); assay: Drug-inhibition test: growth of LgyLRV1+ parasites; type: cell-based, Leishmania guyanensis
Protocol: These compounds were examined for their ability to inhibit the growth of LgyLRV1^+ and virus levels by LRV1 capsid flow cytometry.
Most studies were performed using luciferase-expressing transfectants of L. guyanensis (MHOM/BR/78/M4147) described previously [LRV1^+ LgyM4147/SSU:IR2SAT-LUC(b)c3 and LRV^−LgyM4147/pX63HYG/SSU:IR2SAT-LUC(b)c4] (54); these lines are termed LgyLRV1^+ and LgyLRV1^−, respectively. Two strains of LRV1^+L. braziliensis were examined: LEM2780 (MHOM/BO/90/CS) and LEM3874 (MHOM/BO/99/IMT252 no. 3) (12). Parasites were grown in Schneider's media (Sigma Aldrich, St. Louis, Mo., USA) prepared according to the supplier's instructions with pH adjusted to 6.5 and supplemented with 0.76 mM hemin, 2 μg/mL biopterin, 50 U/mL penicillin, 50 μg/mL streptomycin, and 10% (vol/vol) heat-inactivated FBS. Cell concentrations were determined using a Coulter Counter ([…], Indianapolis, Ind., USA).
(§1) Parasites were inoculated at 2×10^5 cells/mL into Schneider's media lacking supplemental adenine.

[2] = system: LRV1 (LgyLRV1 capsid levels); assay: microbe, parasite or virus in culture; conditions: for Effect on LRV1 (capsid) levels, in words: screen at 100 μM or maximum concentration permitted by solubility; for Inhibition of LRV1 levels, in words: concentrations up to 100 μM, data not shown
Excerpt: Because LRV1 (like most Totiviridae) is not shed from the cell (33, 34), we developed a flow cytometric assay to measure intracellular LRV1 capsid levels on a per cell basis. To detect LRV1 we used binding to a rabbit anti-LgyLRV1 capsid antiserum (35) followed by detection with Alexa Fluor488-conjugated goat anti-rabbit IgG.
as §1
For capsid flow cytometry, 10^7 cells were fixed at room temperature using 2% (wt/vol) paraformaldehyde (Thermo Fisher Scientific) in PBS for 2 minutes. They were then incubated in blocking buffer [10% (vol/vol) normal goat serum (Vector Laboratories, Burlingame, Calif., USA) and 0.2% TRITON X-100 in PBS] for 30 minutes at room temperature. Anti-LgyLRV1 capsid antibody (35) was added (1:20,000 dilution) and incubated at room temperature for 1 hour. After two washes with PBS, cells were resuspended in 200 μL PBS with Alexa Fluor488-labeled goat anti-rabbit IgG (Alexafluor, Invitrogen; 1:1,000; or Thermo Fisher Scientific; 1:2,000 dilution), and incubated 1 hour at room temperature. After two additional washes with PBS, cells were subjected to flow cytometry, gating for single cells using forward and side scatter and the data analyzed using […] software (BD Bioscience, San Jose, Calif., USA).

[3] = Leishmania guyanensis, 48 h, LgyLRV1+, tested at 100 μM, growth after 2 days, read-out: Percent control (density)
[4] = LgyLRV1+, tested at 100 μM, growth after 2 days
[5] = 48 h, read-out: Percent control (LRV1 capsid)
[6] = LgyLRV1+, tested at 100 μM, 2 days
[7] = Leishmania guyanensis, 48 h, read-out: Percent control (density)
[8] = LgyLRV1+, tested at 50 μM, growth after 2 days
[9] = LgyLRV1+, tested at 50 μM, 2 days

Compound | activity at 100 µM [1, 3] [%] | Density (cells/mL) [1, 4] [cells/mL] | activity at 100 µM [2, 5] [%] | LRV1 capsid (geometric mean FU) [2, 6] [FU] | further results
CC(C)OC(=O)[C@H](C)N[P@](=O)(OC[C@H]1O[C@@H](n2ccc(=O)[nH]c2=O)[C@](C)(F)[C@@H]1O)Oc1ccccc1 [PSI-7977, 2-((5-(2,4-dioxo-3,4-dihydro-2H-pyrimidin-1-yl)-4-fluoro-3-hydroxy-4-methyltetrahydrofuranyl-2-methoxy)phenoxyphosphorylamino) propionic acid isopropyl ester] | 74 | 1.25E+7 | 61 | 163 | Effect on LRV1 (capsid) levels, in words ([2]; 2 days): little effect on LRV1
O=c1[nH]cnc2c(CN3C[C@H](CO)[C@@H](O)C3)c[nH]c12 [DADMe-Immucillin H] | – | – | – | – | Inhibition of LRV1 levels, in words [2]: no inhibition of LRV1 levels
O=c1cn[nH]c(=O)[nH]1 [Compound 6-Azauracil, 6-Azauracil] | 71 | 1.20E+7 | 102 | – | LRV1 capsid (geometric mean FU) [2]: 271 FU
Nc1nc2c(ncn2COCCO)c(=O)[nH]1 [Acyclovir] | – | – | – | – | activity at 120 µM ([1]; Leishmania guyanensis, 48 h, LgyLRV1+, tested at 120 μM, growth after 2 days, read-out: Percent control (density)): 51%; Density (cells/mL) ([1]; LgyLRV1+, tested at 120 μM, growth after 2 days): 8.55E+6 cells/mL; activity at 120 µM [2, 5]: 259%
O=c1nc[nH]c(=O)[nH]1 [Compound 5-Azauracil, 5-Azauracil] | – | – | 95 | – | Density (cells/mL) [1]: 1.13E+7 cells/mL; activity at 100 µM [1, 7]: 67%; LRV1 capsid (geometric mean FU) [2]: 252 FU
3′-Hydroxyethyl cyclobutyl adenine | – | 1.82E+7 | – | 290 | Percent control (density) [1, 4]: 108 Percent control; Percent control (LRV1 capsid) [2, 6]: 109 Percent control
Cc1cn([C@H]2C=C[C@@H](CO)O2)c(=O)[nH]c1=O [Stavudine] | 95 | 1.60E+7 | 83 | 220 | –
O=c1[nH]cnc2c1ncn2[C@H]1CC[C@@H](CO)O1 [Didanosine] | – | 1.80E+7 | 68 | 182 | activity at 100 µM [1, 7]: 107%
NC(=O)c1nc(F)c[nH]c1=O [Compound T-705, Favipiravir] | 67 | 1.13E+7 | 60 | 161 | –
CCCNC(=O)[C@H]1O[C@@H]1C(=O)N[C@H](C(=O)N1CCC[C@H]1C(=O)OC)[C@@H](C)CC [CA-074-Me, CA-074 Me] | – | – | – | – | Density (cells/mL) [1, 8]: 1.00E+07 cells/mL; Percent control (density) [1, 8]: 60 Percent control; Effect on L. guyanensis growth, in words ([1]; screen at 100 μM or maximum concentration permitted by solubility, 2 days): no effects; LRV1 capsid (geometric mean FU) [2, 9]: 83 FU; Percent control (LRV1 capsid) [2, 9]: 31 Percent control; Effect on LRV1 (capsid) levels, in words ([2]; 2 days): only minimal effects
NC(=O)c1ncn([C@@H]2O[C@H](CO)[C@@H](O)[C@H]2O)n1 [Ribavirin] | 13 | 2.21E+6 | 61 | 162 | –
3′-Azido-3′-hydroxyethyl cyclobutyl adenine [Compound E9] | – | 1.58E+7 | – | 279 | Percent control (density) [1, 4]: 94 Percent control; Percent control (LRV1 capsid) [2, 6]: 105 Percent control
O=c1[nH]cnc2c([C@@H]3N[C@H](CO)[C@@H](O)[C@H]3O)c[nH]c12 [Immucillin H] | – | – | – | – | Inhibition of LRV1 levels, in words [2]: no inhibition of LRV1 levels
Nc1ncnc2c(C3N[C@H](CO)[C@@H](O)[C@H]3O)c[nH]c12 (some centres unmarked) [Immucillin A] | – | – | – | – | Inhibition of LRV1 levels, in words [2]: no inhibition of LRV1 levels
Nc1ncnc2nc[nH]c12 [adenine] | – | – | – | – | Effect of exogenous adenine on LRV1 levels, in words ([2]; adenine up to 400 μM, LgyLRV1+): nor did it alter LRV1 levels
